Measurements taken from PubChem BioAssay (NCI).
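Exposure lasted 48 hours, with cells grown in 96-well plates and compounds tested at five concentrations. At the GI50, growth is halved. TGI: concentration producing complete growth inhibition.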

Tests used:
Experiment in all cases: NCI anticancer screen, dose series, 48 h
[1] = system: 786-0 renal
[2] = system: A498 renal
[3] = system: A549 NSCLC
[4] = system: ACHN renal
[5] = system: BT-549 breast
[6] = system: CAKI-1 renal
[7] = system: CCRF-CEM leukemia
[8] = system: DU-145 prostate
[9] = system: EKVX NSCLC
[10] = system: HCC-2998 colon
[11] = system: HCT-116 colon
[12] = system: HCT-15 colon
[13] = system: HL-60(TB) leukemia
[14] = system: HOP-62 NSCLC
[15] = system: HOP-92 NSCLC
[16] = system: HS 578T breast
[17] = system: IGROV1 ovarian
[18] = system: K-562 leukemia
[19] = system: KM12 colon
[20] = system: LOX IMVI melanoma
[21] = system: M14 melanoma
[22] = system: MCF7 breast
[23] = system: MDA-MB-231 breast
[24] = system: MDA-MB-435
[25] = system: MOLT-4 leukemia
[26] = system: NCI-H226 lung
[27] = system: NCI-H23 lung
[28] = system: NCI-H460 lung
[29] = system: NCI-H522 lung
[30] = system: NCI/ADR-RES ovarian
[31] = system: OVCAR-3 ovarian
[32] = system: OVCAR-4 ovarian
[33] = system: OVCAR-5 ovarian
[34] = system: OVCAR-8 ovarian
[35] = system: PC-3 prostate
[36] = system: RPMI-8226 leukemia
[37] = system: RXF 393 renal
[38] = system: SF-268 CNS
[39] = system: SF-295 CNS
[40] = system: SF-539 CNS
[41] = system: SK-MEL-2 melanoma
[42] = system: SK-MEL-28 melanoma
[43] = system: SK-MEL-5 melanoma
[44] = system: SK-OV-3 ovarian
[45] = system: SN12C renal
[46] = system: SNB-19 CNS
[47] = system: SNB-75 CNS
[48] = system: SR leukemia
[49] = system: SW-620 colon
[50] = system: T-47D breast
[51] = system: U251 CNS
[52] = system: UACC-62 melanoma
[53] = system: UO-31 renal

Molecule `Cc1ccc(S(=O)(=O)c2nc(-c3ccc(F)cc3)oc2S(C)(=O)=O)cc1` has a GI50 [1] of over 100 µM, a TGI [1] of over 100 µM and a GI50 [2] of over 100 µM. It also gave a TGI [2] of over 100 µM, a GI50 [3] of over 100 µM and a TGI [3] of over 100 µM. For the same molecule, the GI50 [4] was 1.74 µM, the TGI [4] was 3.13 µM and the GI50 [5] was 14.1 µM. The TGI [5] was over 100 µM, the GI50 [6] was 4.83 µM and the TGI [6] was over 100 µM. For the same molecule, the GI50 [7] was 2.92 µM, the TGI [7] was over 100 µM and the GI50 [8] was over 100 µM. For the same molecule, the TGI [8] was over 100 µM, the GI50 [9] was over 100 µM and the TGI [9] was over 100 µM. The GI50 [10] was over 100 µM, the TGI [10] was over 100 µM and the GI50 [11] was 1.53 µM. The TGI [11] was 2.94 µM, the GI50 [12] was 3.95 µM and the TGI [12] was over 100 µM. For the same molecule, the GI50 [13] was 1.65 µM, the TGI [13] was 5.57 µM and the GI50 [14] was over 100 µM. For the same molecule, the TGI [14] was over 100 µM, the GI50 [15] was 6.69 µM and the TGI [15] was over 100 µM. The TGI [16] was over 52.9 µM, the GI50 [17] was over 100 µM and the TGI [17] was over 100 µM. The GI50 [18] was 2.94 µM, the TGI [18] was over 100 µM and the GI50 [19] was over 100 µM. It also gave a TGI [19] of over 100 µM, a GI50 [20] of 2.04 µM and a GI50 [21] of over 100 µM. It also gave a TGI [21] of over 100 µM, a GI50 [22] of 3.78 µM and a TGI [22] of over 100 µM. For the same molecule, the GI50 [23] was over 100 µM, the TGI [23] was over 100 µM and the GI50 [24] was 13.7 µM. It also gave a TGI [24] of over 100 µM, a GI50 [25] of 4.61 µM and a TGI [25] of over 100 µM. The GI50 [26] was over 20.2 µM, the TGI [26] was over 100 µM and the GI50 [27] was 3.13 µM. It also gave a TGI [27] of over 100 µM, a GI50 [28] of over 100 µM and a TGI [28] of over 100 µM. The GI50 [29] was 2.27 µM, the GI50 [30] was over 31.8 µM and the TGI [30] was over 100 µM. It also gave a GI50 [31] of over 100 µM, a TGI [31] of over 100 µM and a GI50 [32] of over 100 µM. For the same molecule, the TGI [32] was over 100 µM, the GI50 [33] was over 100 µM and the TGI [33] was over 100 µM. For the same molecule, the GI50 [34] was 6.88 µM, the TGI [34] was over 100 µM and the GI50 [35] was over 21.9 µM. It also gave a TGI [35] of over 100 µM, a GI50 [36] of over 100 µM and a TGI [36] of over 100 µM. The GI50 [37] was 5.16 µM, the TGI [37] was over 100 µM and the GI50 [38] was over 35 µM. It also gave a TGI [38] of over 100 µM, a GI50 [39] of over 100 µM and a TGI [39] of over 100 µM. It also gave a GI50 [40] of over 100 µM, a TGI [40] of over 100 µM and a GI50 [41] of over 21 µM. It also gave a TGI [41] of over 100 µM, a GI50 [42] of over 100 µM and a TGI [42] of over 100 µM. The GI50 [43] was over 100 µM, the TGI [43] was over 100 µM and the GI50 [44] was over 93.5 µM. For the same molecule, the TGI [44] was over 100 µM, the GI50 [45] was 8.51 µM and the TGI [45] was over 100 µM. The GI50 [46] was over 77.6 µM, the TGI [46] was over 100 µM and the GI50 [47] was over 23.5 µM. It also gave a TGI [47] of over 100 µM, a GI50 [48] of 1.06 µM and a GI50 [49] of 2.4 µM. It also gave a GI50 [50] of 1.73 µM, a TGI [50] of 3.67 µM and a GI50 [51] of 16.9 µM. It also gave a TGI [51] of over 100 µM, a TGI [52] of over 100 µM and a GI50 [53] of over 100 µM. For the same molecule, the TGI [53] was over 100 µM.
